Experimental data as given in patent publication CN116919972A, “去氧胆酸在制备抗水生病毒感染的药物或添加剂中的应用” (priority 2023, dated 2023).

How the values were obtained:
[1] = test system: SVCV (鲤春病毒血症病毒); test: Inhibition of SVCV-G gene expression in EPC cells (RT-qPCR); format: cell-based; settings: 12 h pretreatment, 0.1 MOI SVCV, 28 °C, 24 h
[2] = test system: SVCV-G protein (SVCV-G蛋白); test: Inhibition of SVCV-G protein expression in EPC cells (western blot); format: cell-based; settings: 1-50 μM, increasing concentration, 0.1 MOI SVCV, 28 °C, 24 h
[3] = test system: SVCV (鲤春病毒血症病毒); test: Inhibition of SVCV virus particle formation (plaque assay on EPC cell supernatant); format: cell-based; settings: 50 μM, EPC cells, 0.1 MOI SVCV, 28 °C, 24 h; control 10^6.11 PFU/mL
[4] = test system: SVCV (鲤春病毒血症病毒); test: Survival of SVCV-infected zebrafish fed deoxycholic acid; format: in vivo; settings: 0.2 mg/fish per feeding, 7 days before injection of 10^4 PFU SVCV, 14 d observation, 16 °C; control 23.33%
[5] = test system: SVCV (鲤春病毒血症病毒); test: Viral load in organs of SVCV-infected zebrafish (absolute quantification of SVCV-G); format: in vivo; settings: 5 d after SVCV infection, DCA 0.2 mg/fish fed
[6] = test system: SVCV (鲤春病毒血症病毒); test: Histopathology (H&E) of organs of SVCV-infected zebrafish; format: in vivo; settings: zebrafish liver, intestine, kidney, 5 d after SVCV infection, versus SVCV infection group
[7] = test system: zebrafish (斑马鱼); test: Toxicity to zebrafish by organ histology (H&E), uninfected; format: in vivo; settings: DCA-fed (0.2 mg/fish), liver, intestine, kidney histology
[8] = test system: IHNV (传染性造血器官坏死病病毒); test: Inhibition of IHNV in EPC cells (RT-qPCR of IHNV-G gene); format: cell-based; settings: 50 μM, 0.1 MOI IHNV, 16 °C, 24 h, P<0.0001 vs control
[9] = test system: IHNV (传染性造血器官坏死病病毒); test: Survival of IHNV-infected rainbow trout fed deoxycholic acid; format: in vivo; settings: 0.2 mg/fish per feeding, 7 days before injection of 10^4 PFU IHNV, 14 d observation, 16 °C; control 30%
[10] = test system: IHNV (传染性造血器官坏死病病毒); test: Viral load in organs of IHNV-infected rainbow trout (IHNV-G quantification); format: in vivo; settings: 5 d after IHNV infection, DCA 0.2 mg/fish fed
[11] = test system: IHNV (传染性造血器官坏死病病毒); test: Histopathology (H&E) of organs of IHNV-infected rainbow trout; format: in vivo; settings: rainbow trout liver, intestine, kidney, 5 d after IHNV infection, versus IHNV infection group
[12] = test system: rainbow trout (虹鳟); test: Toxicity to rainbow trout by organ histology (H&E), uninfected; format: in vivo; settings: DCA-fed (0.2 mg/fish), liver, intestine, kidney histology

Structure (SMILES): C[C@H](CCC(=O)O)[C@H]1CC[C@H]2[C@@H]3CC[C@@H]4C[C@H](O)CC[C@]4(C)[C@H]3C[C@H](O)[C@]12C [去氧胆酸]
- inhibition at 1 µM ([1]; 1 μM, P<0.01, read-out: decrease of SVCV-G gene expression relative to control): 30.2%
- inhibition at 5 µM ([1]; 5 μM, P<0.001, read-out: decrease of SVCV-G gene expression relative to control): 49.2%
- inhibition at 10 µM ([1]; 10 μM, P<0.001, read-out: decrease of SVCV-G gene expression relative to control): 50.7%
- inhibition at 20 µM ([1]; 20 μM, P<0.0001, read-out: decrease of SVCV-G gene expression relative to control): 68%
- inhibition at 50 µM ([1]; 50 μM, P<0.0001, read-out: decrease of SVCV-G gene expression relative to control): 92%
- SVCV G protein expression compared with control [2]: 依次降低
- SVCV detection in cell supernatant [3]: 无法被检测到
- survival rate of SVCV-infected zebrafish [4]: 66.67%
- viral load in intestine ([5]; intestine): 显著降低
- viral load in kidney ([5]; kidney): 显著降低
- viral load in liver ([5]; liver): 显著降低
- pathological damage caused by virus infection in organs [6]: 明显减轻
- toxicity to zebrafish [7]: 没有毒性
- IHNV viral load [8]: 显著降低
- survival rate of IHNV-infected rainbow trout [9]: 60%
- viral load in intestine ([10]; intestine): 显著降低
- viral load in kidney ([10]; kidney): 显著降低
- pathological damage caused by virus infection in organs [11]: 明显减轻
- toxicity to rainbow trout [12]: 没有毒性
